# Biological target: Receptor protein serine/threonine kinase (Danio rerio, UniProt B3DJG0)
# Test: Kinase assay Dorsalization
# Receptor protein serine/threonine kinase, sequence (B3DJG0 whole entry): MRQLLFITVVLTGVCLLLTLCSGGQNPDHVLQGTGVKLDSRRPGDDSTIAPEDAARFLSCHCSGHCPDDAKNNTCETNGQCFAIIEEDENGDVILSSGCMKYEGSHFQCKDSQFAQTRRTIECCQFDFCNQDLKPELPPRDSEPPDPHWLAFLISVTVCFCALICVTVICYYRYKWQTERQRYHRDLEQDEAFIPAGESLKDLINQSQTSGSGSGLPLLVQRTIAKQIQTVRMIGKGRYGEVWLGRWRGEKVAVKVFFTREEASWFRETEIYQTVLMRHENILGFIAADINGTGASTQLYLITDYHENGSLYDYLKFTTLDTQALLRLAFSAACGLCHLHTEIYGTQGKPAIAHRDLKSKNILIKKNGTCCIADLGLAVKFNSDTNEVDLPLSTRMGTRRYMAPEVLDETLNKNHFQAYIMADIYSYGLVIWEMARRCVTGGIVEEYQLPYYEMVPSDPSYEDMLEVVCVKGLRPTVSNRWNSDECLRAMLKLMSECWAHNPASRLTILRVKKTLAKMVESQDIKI
row,SMILES,EC100 [nM]
1,c1cc(-c2cnn3cc(-c4ccc(OCCN5CCOCC5)cc4)cnc23)ccn1,1000
2,"c1ccc2c(-c3cnn4cc(-c5ccc(OCCN6CCOCC6)cc5)cnc34)ccnc2c1 [4-(2-(4-(3-(quinolin-4-yl)pyrazolo[1,5-a]pyrimidin-6-yl)phenoxy)ethyl)morpholine]",100
3,"CC(C)Oc1ccc(-c2cnc3c(-c4ccnc5ccccc45)cnn3c2)cc1 [4-(6-(4-isopropoxyphenyl)pyrazolo[1,5-a]pyrimidin-3-yl)quinoline]",200
4,CN(C)CCCOc1ccc(-c2cnc3c(-c4ccnc5ccccc45)cnn3c2)cc1 [DMH3],1000
5,c1ccc2c(-c3cnn4cc(-c5ccc(N6CCNCC6)cc5)cnc34)ccnc2c1 [LDN-193189],3000
6,COc1ccc(-c2cnc3c(-c4ccccc4)cnn3c2)cc1 [dorsomorphin (6LP)],> 50000
